Measurements from ChEMBL document CHEMBL2331451, “Discovery of (1R,2R)-N-(4-(6-isopropylpyridin-2-yl)-3-(2-methyl-2H-indazol-5-yl)isothiazol-5-yl)-2-methylcyclopropanecarboxamide, a potent and orally efficacious mGlu5 receptor negative allosteric modulator” (Bioorg Med Chem Lett, 2013).

Tests used:
[1] = target: Metabotropic glutamate receptor 1 (Homo sapiens, UniProt Q13255); assay: Negative allosteric modulation of human recombinant mGlu1 receptor expressed in Syrian hamster AV12 cells assessed as receptor-mediated changes in intracellular calcium concentration by FLIPR assay; format: functional, cell-based
[2] = target: Metabotropic glutamate receptor 5 (Homo sapiens, UniProt P41594); assay: Negative allosteric modulation of human recombinant mGlu5 receptor expressed in Syrian hamster AV12 cells assessed as receptor-mediated changes in intracellular calcium concentration by FLIPR assay; format: functional, cell-based
[3] = species on record: Homo sapiens; assay: Selectivity ratio of IC50 for human recombinant mGlu1 receptor to IC50 for human recombinant mGlu5 receptor

Chain of Metabotropic glutamate receptor 5 (P41594 whole entry): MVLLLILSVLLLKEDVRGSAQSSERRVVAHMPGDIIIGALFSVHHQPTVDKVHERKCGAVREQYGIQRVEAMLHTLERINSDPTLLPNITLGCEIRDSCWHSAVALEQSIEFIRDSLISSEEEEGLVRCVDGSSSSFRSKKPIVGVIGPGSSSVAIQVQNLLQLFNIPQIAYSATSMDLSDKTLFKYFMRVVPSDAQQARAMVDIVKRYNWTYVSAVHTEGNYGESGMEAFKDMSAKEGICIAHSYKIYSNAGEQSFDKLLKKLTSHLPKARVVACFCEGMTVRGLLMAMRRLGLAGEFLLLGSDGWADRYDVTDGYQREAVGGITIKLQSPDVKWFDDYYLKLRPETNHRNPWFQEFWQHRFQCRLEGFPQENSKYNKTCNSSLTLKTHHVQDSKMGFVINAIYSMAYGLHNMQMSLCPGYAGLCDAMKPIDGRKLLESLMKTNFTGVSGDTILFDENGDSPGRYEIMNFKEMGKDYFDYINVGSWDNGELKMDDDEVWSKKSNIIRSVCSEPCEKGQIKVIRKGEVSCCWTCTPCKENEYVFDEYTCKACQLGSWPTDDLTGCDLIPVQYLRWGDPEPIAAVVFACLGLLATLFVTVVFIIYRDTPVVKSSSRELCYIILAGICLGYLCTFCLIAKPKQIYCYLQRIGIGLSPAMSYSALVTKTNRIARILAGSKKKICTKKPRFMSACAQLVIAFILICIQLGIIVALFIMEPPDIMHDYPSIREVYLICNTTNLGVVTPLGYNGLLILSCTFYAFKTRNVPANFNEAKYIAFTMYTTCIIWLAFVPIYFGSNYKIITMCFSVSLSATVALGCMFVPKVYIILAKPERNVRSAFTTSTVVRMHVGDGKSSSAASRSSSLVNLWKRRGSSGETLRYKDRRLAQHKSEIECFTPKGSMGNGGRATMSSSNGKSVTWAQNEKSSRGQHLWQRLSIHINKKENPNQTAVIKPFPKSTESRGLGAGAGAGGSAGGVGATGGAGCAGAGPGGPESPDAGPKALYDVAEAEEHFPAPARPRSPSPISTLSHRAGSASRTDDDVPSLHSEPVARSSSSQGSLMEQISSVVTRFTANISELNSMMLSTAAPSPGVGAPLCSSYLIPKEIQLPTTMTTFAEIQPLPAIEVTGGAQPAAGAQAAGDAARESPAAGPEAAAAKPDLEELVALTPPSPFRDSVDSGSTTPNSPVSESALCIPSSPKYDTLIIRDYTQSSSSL
Chain of Metabotropic glutamate receptor 1 (Q13255 whole entry): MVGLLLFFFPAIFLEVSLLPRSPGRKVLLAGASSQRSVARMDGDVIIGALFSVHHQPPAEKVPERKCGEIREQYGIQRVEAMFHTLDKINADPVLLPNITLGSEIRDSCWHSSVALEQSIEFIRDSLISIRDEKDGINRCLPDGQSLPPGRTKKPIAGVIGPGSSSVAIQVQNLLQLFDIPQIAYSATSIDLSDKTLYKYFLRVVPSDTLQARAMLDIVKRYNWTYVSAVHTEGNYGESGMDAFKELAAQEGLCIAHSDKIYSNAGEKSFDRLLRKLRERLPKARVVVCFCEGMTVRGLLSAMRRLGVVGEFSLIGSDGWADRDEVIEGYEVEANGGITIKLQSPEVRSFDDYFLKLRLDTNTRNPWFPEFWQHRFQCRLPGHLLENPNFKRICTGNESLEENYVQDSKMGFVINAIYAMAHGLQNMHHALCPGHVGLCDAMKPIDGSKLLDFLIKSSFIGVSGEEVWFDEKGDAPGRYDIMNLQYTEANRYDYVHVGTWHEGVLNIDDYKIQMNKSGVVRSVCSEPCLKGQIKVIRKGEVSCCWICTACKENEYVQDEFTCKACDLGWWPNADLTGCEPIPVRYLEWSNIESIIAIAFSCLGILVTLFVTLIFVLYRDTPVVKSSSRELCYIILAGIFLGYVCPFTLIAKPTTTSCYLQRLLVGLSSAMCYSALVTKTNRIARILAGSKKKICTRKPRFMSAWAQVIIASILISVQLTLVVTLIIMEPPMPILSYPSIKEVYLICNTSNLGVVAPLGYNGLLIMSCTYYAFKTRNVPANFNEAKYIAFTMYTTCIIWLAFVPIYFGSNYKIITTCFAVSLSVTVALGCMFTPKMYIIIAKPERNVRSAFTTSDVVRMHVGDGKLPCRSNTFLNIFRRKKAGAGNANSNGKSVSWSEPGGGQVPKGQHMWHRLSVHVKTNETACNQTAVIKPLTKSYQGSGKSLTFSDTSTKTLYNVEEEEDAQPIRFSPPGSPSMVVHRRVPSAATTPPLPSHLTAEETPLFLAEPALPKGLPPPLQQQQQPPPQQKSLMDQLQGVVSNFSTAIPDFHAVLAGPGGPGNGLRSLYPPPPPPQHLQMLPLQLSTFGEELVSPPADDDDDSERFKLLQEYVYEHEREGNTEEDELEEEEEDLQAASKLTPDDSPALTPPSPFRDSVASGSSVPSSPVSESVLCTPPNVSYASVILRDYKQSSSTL

SMILES: C[C@@H]1C[C@H]1C(=O)Nc1snc(-c2ccc3nn(C)cc3c2)c1-c1cccc(C2CC2)n1
- IC50 [1]: 735 nM
- IC50 [2]: 30 nM
- Ratio IC50 [3]: 25

SMILES: C[C@@H]1C[C@H]1C(=O)Nc1snc(-c2ccc3n[nH]cc3c2)c1-c1cccc(N(C)C)n1
- IC50 [1]: > 12500 nM
- IC50 [2]: 47 nM
- Ratio IC50 [3]: > 266

SMILES: CC(C)c1cccc(-c2c(-c3ccc4n[nH]cc4c3)nsc2NC(=O)[C@@H]2C[C@H]2C)n1
- IC50 [1]: 4570 nM
- IC50 [2]: 45 nM
- Ratio IC50 [3]: 102

SMILES: CC(C)c1cccc(-c2c(-c3ccc4nn(C)cc4c3)nsc2NC(=O)C2CC2)n1
- IC50 [1]: 397 nM
- IC50 [2]: 39 nM
- Ratio IC50 [3]: 10

SMILES: C[C@@H]1C[C@H]1C(=O)Nc1snc(-c2ccc3nn(C)cc3c2)c1-c1cccc(C2CCCC2)n1
- IC50 [1]: 891 nM
- IC50 [2]: 27 nM
- Ratio IC50 [3]: 33

SMILES: C[C@@H]1C[C@H]1C(=O)Nc1snc(-c2ccc3nn(C)cc3c2)c1-c1cccc(C2CCC2)n1
- IC50 [1]: 687 nM
- IC50 [2]: 54 nM
- Ratio IC50 [3]: 13

SMILES: C[C@@H]1C[C@H]1C(=O)Nc1snc(-c2ccc3nn(C)cc3c2)c1-c1cccc(C(F)F)n1
- IC50 [1]: 1020 nM
- IC50 [2]: 81 nM
- Ratio IC50 [3]: 13

SMILES: CCc1cccc(-c2c(-c3ccc4n[nH]cc4c3)nsc2NC(=O)[C@@H]2C[C@H]2C)n1
- IC50 [1]: 3110 nM
- IC50 [2]: 36 nM
- Ratio IC50 [3]: 86

SMILES: CNc1cccc(-c2c(-c3ccc4nn(C)cc4c3)nsc2NC(=O)[C@@H]2C[C@H]2C)n1
- IC50 [1]: 1590 nM
- IC50 [2]: 62 nM
- Ratio IC50 [3]: 26

SMILES: CCCc1cccc(-c2c(-c3ccc4nn(C)cc4c3)nsc2NC(=O)[C@@H]2C[C@H]2C)n1
- IC50 [1]: 409 nM
- IC50 [2]: 20 nM
- Ratio IC50 [3]: 20
